Reference: US20180267043A1, “USE OF BIOMARKERS FOR PREDICTING CLINICAL SENSITIVITY TO CANCER TREATMENT” (CELGENE CORPORATION, priority 2014, published 2018)

Experiments:
GSPT1 and eRF1 [1] = biological target: T1, GSPT1 and eRF1 (Homo sapiens, UniProt P15170+); experiment: Immunoblotting of GSPT1 and eRF1 in 293FT HEK cells; format: cell-based
T1 construct: endogenous in cells; host or cells: 293FT HEK cells
Protocol: (§1) CRBN+/+(293FT parental) cells were treated in parallel with CRBN−/− (CRISPR) cells, CRBN−/− cells expressing CRBN isoform 2, and CRBN−/− cells expressing CRBN isoform 2 with a W385A mutation.

GSPT1 and eRF1 [2] = experiment: as above; format: cell-based, human; settings: CRBN−/− cells with CRBNiso2 or CRBNiso2 W385A mutant
Protocol: as §1

[3] = system: KG1, DF15, AML3, and 293FT; experiment: Sensitivity to compound-induced ER stress and apoptosis, KG1, DF15, AML3, 293FT; format: cell-based, human
Protocol: (§2) The GSPT1 dependency was shown by GSPT1-specific shRNA knockdown experiment. The GSPT1 degradation efficiency was shown by Western Blot. The induction of ATF3 or DDIT3 was measured by quantitative RT-PCR. […] Time needed for Compound C-induced ER stress or Compound C-induced apoptosis was summarized. […] High ER demand may contribute to the sensitivity of certain cancer cells to the treatment of Compound C.

FLAG-HA tagged CRBN = biological target: T2, FLAG-HA tagged CRBN (Homo sapiens, UniProt Q96SW2); experiment: Anti-FLAG immunoprecipitation of FLAG-HA CRBN from 293 HEK lysate, mass spectrometry; format: binding; settings: 1 μM, whole cell lysate of 293 HEK cells, vs DMSO
T2 construct: HA; expressed in transfected cells
Protocol: Whole cell lysate of 293 HEK cells stably expressing FLAG-HA tagged CRBN was treated with 1 μM Compound C or DMSO vehicle control. Proteins associated with FLAG-HA CRBN were immunoprecipitated with anti-FLAG affinity gel, separated on SDS-PAGE, silver-stained, and analyzed by mass spectrometry. […] Arrows point to the expected positions of DDB1, GSPT1, PABP1, and CRBN.

[4] = biological target: T3, human CRBN isoform 2 (IKZF1/3, GSPT1/2 as substrates) (Homo sapiens, UniProt Q96SW2, V388I); experiment: Substrate degradation in CRBN−/− cells expressing human CRBN isoform 2 or mutants; format: cell-based; settings: hCRBNiso2 V387I; 1 μM Compound C
T3 construct: expressed in transfected cells; host or cells: CRBN-/- cells (elsewhere: 293FT, CRISPR)
Excerpt: (§3) They were co-expressed together with GFP in CRBN −/− cells. These cells also expressed human CRBN isoform 2, or various specific mutants (hCRBNiso2 E376V, hCRBNiso2 V387I, or hCRBNiso2 W385A) by transfection with corresponding DNA.

[5] = biological target: T4, human CRBN isoform 2 (IKZF1/3, GSPT1/2 as substrates) (Homo sapiens, UniProt Q96SW2, E377V); experiment: as above; format: cell-based; settings: hCRBNiso2 E376V; 1 μM Compound C
T4 construct: expressed in transfected cells; host or cells: CRBN-/- cells (elsewhere: 293FT, CRISPR)
Excerpt: as §3

[6] = biological target: T5, human CRBN isoform 2 (IKZF1/3, GSPT1/2 as substrates) (Homo sapiens, UniProt Q96SW2); experiment: as above; format: cell-based; settings: cells expressing human CRBN isoform 2
T5 construct: expressed in transfected cells; host or cells: CRBN-/- cells (elsewhere: 293FT, CRISPR)
Excerpt: as §3

[7] = system: human CRBN isoform 2 (IKZF1/3, GSPT1/2 as substrates); experiment: as above; format: cell-based; settings: CRBN−/− cells without human CRBN; 10 μM lenalidomide or 1 μM Compound C
Excerpt: as §3

GSPT1 = biological target: T6, GSPT1 (Homo sapiens, UniProt P15170); experiment: GSPT1 expression level in HEK 293FT cells after compound treatment; format: cell-based; settings: CRBN+/+ cells, 10 hours, 100 nM or 1000 nM, compared to CRBN−/− cells
T6 construct: endogenous in cells; host or cells: HEK 293FT cells (CRBN+/+)

[8] = system: Acute Myelogenous Leukemia (AML3) cell line; experiment: CellTiter-Glo cell viability assay after GSPT1 knockdown, AML3; format: cell-based, human
Protocol: The effect of depletion of GSPT1 on the anti-proliferative effect of Compound C was determined in human Acute Myelogenous Leukemia (AML3) cell line. Cells were infected with lentiviral vectors expressing control shRNA, shGSPT1-1 or shGSPT1-3 for 7 days and then treated with DMSO, Compound C in a titration from 0.0001 μM to 1 μM. Two days after treatment, cell proliferation was measured by CellTiter-Glo cell viability assay.

PERK pathway of UPR = experiment: RNA level of PERK pathway components in 293FT HEK cells; format: cell-based, human; settings: parental and control shRNA cells, 1 nM or 10 nM, 24 hours
Protocol: The mechanism of Compound C-induced Unfolded Protein Response (UPR) was studied in 293FT HEK cells. Parental cells, CRBN−/− cells, cells expressing control shRNA, or cells expressing GSPT1-specific shRNA were treated with DMSO, 1 nM, or 10 nM Compound C. The RNA level of variant cellular components along the PERK pathway of UPR was measured and normalized with GAPDH at 24 hours after treatment.

XBP1 and ATF6 pathways = experiment: RNA level of XBP1 and ATF6 pathway components in KG1 cells; format: cell-based, human; settings: KG1, 20 nM, 2, 4, or 6 hours
Protocol: The mechanism of Compound C-activated XBP1 and ATF6 pathways of UPR was studied in KG1 cells. Cells were treated with DMSO or 20 nM Compound C for 2, 4, or 6 hours. The RNA level of variant cellular components along the XBP1 and ATF6 pathways was measured and normalized with GAPDH.

RPMI-8226 = experiment: Sensitivity to compound-induced ER stress and apoptosis, RPMI-8226; format: cell-based, human
Protocol: as §2

[9] = system: Aiolos, CK1a, GSPT1 in OCI-LY10; experiment: Western blot analysis in lymphoma cell line OCI-LY10; format: cell-based; settings: OCI-LY10, 100 μM Compound C, 6 hours
Excerpt: Cells were harvested with RIPA buffer, and proteins from cell lysates were separated by 10% sodium dodecyl sulfate polyacrylamide (SDS-PAGE) gel electrophoresis (Bio-Rad), then transferred to PVDF membranes (Invitrogen). Immunoblots were probed with antibodies recognizing Aiolos (9-9-7; Celgene), CK1a (Abcam), GSPT1 (Sigma), ZFP91 (LSBio) and β-actin (Li-Cor). Signals were detected with a Li-Cor Odyssey imager.

T5 sequence (Q96SW2 1-441 isoform Q96SW2-2): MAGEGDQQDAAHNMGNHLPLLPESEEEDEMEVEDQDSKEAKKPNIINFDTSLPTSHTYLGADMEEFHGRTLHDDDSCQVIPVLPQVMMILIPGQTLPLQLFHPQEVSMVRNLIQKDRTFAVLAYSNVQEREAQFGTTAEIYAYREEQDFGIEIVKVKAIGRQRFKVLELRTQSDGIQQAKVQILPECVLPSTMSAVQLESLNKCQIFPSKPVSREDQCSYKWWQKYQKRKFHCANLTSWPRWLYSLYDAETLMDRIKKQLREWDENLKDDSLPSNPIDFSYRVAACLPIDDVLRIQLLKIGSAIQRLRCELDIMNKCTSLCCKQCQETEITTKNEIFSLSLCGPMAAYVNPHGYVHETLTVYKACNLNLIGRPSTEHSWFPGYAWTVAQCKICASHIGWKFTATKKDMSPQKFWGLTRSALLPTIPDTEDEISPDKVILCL
T5 sequence (Q16531 whole entry partner, canonical isoform): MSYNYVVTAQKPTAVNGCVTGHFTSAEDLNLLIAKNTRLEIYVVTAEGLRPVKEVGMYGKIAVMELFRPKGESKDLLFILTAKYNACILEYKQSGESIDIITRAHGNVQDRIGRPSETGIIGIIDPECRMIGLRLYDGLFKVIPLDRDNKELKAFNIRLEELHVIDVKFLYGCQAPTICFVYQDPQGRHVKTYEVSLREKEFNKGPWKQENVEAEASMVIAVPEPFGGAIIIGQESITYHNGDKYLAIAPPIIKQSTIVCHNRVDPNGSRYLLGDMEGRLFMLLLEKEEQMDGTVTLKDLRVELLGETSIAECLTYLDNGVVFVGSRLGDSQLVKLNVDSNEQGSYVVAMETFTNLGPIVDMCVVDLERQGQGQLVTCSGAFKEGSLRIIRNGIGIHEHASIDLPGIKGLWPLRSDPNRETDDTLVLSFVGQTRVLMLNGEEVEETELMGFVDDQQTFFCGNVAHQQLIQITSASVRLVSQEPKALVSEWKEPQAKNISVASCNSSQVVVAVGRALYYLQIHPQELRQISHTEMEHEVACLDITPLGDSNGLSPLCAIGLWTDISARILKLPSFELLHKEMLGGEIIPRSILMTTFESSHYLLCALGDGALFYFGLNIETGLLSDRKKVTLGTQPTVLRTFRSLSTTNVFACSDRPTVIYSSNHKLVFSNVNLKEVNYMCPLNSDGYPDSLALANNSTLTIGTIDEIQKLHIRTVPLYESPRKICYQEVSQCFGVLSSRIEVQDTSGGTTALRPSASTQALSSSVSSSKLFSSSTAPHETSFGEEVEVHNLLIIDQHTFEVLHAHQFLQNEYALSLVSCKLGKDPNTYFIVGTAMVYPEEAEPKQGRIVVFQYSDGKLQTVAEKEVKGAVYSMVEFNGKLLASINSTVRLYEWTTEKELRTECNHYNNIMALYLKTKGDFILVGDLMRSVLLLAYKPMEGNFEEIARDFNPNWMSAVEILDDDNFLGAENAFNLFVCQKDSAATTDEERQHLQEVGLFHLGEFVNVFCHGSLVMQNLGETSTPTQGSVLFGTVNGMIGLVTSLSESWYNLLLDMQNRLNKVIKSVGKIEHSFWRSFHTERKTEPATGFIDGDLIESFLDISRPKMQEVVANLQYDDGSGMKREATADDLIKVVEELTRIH
T2 sequence (Q96SW2 whole entry): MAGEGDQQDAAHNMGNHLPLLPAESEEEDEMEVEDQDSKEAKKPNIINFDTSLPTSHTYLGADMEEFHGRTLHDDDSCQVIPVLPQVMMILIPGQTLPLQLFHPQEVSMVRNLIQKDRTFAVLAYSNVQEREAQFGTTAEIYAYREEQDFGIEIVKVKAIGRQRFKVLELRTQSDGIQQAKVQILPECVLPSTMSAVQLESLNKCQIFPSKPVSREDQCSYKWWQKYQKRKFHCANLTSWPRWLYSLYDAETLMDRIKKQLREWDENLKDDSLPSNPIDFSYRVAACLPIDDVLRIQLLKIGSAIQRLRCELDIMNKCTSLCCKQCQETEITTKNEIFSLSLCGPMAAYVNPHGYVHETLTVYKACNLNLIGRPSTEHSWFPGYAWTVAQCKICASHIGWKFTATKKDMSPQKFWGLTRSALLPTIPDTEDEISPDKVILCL
T3 sequence (Q96SW2 1-441 isoform Q96SW2-2 V387I): as the sequence (Q96SW2 1-441 isoform Q96SW2-2) above, with V387I counted along it
T3 sequence (Q16531 whole entry partner, canonical isoform): as the sequence (Q16531 whole entry partner, canonical isoform) above
T6 sequence (P15170 whole entry): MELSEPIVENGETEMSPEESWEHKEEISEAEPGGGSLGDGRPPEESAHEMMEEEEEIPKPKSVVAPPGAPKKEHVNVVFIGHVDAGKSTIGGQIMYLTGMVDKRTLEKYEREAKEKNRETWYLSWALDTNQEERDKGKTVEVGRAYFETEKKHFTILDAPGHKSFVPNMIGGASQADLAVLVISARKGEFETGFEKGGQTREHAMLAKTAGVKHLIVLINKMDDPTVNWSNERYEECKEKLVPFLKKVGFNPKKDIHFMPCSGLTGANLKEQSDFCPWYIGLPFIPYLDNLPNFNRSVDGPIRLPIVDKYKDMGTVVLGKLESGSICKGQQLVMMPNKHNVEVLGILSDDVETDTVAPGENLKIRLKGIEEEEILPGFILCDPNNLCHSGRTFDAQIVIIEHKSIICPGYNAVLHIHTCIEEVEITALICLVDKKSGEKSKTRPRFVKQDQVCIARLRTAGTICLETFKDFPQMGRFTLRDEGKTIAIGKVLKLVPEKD
T6 sequence (Q96SW2 whole entry, further chain): as the sequence (Q96SW2 whole entry) above
T6 sequence (Q16531 whole entry partner): as the sequence (Q16531 whole entry partner, canonical isoform) above
T4 sequence (Q96SW2 1-441 isoform Q96SW2-2 E376V): as the sequence (Q96SW2 1-441 isoform Q96SW2-2) above, with E376V counted along it
T4 sequence (Q16531 whole entry partner, canonical isoform): as the sequence (Q16531 whole entry partner, canonical isoform) above

SMILES: Cc1ccc(NC(=O)NCc2ccc3c(c2)CN(C2CCC(=O)NC2=O)C3=O)cc1Cl (centres unmarked) [Compound C, 1-(3-chloro-4-methylphenyl)-3-((2-(2,6-dioxopiperidin-3-yl)-1-oxoisoindolin-5-yl)methyl)urea]
- Degradation of GSPT1 and eRF1 (GSPT1 and eRF1 [1]; CRBN+/+ (293FT parental) cells): induces degradation of GSPT1 and eRF1 in CRBN+/+ cells
- Degradation of GSPT1 and eRF1 (GSPT1 and eRF1 [1]; CRBN+/+ cells with overexpression of GSPT1): reduces this degradation effect
- Degradation of GSPT1 and eRF1 (GSPT1 and eRF1 [2]): restores Compound C-induced degradation of GSPT1 and eRF1
- Sensitivity to the compound ([3]; KG1, DF15, AML3, and 293FT): exhibit different levels of sensitivity to Compound C
- Order in time of compound-induced ER stress and apoptosis ([3]; cancer cell lines of FIG. 21): Compound C-induced ER stress precedes Compound C-induced apoptosis
- Proteins associated with FLAG-HA CRBN identified as CAPs (FLAG-HA tagged CRBN): PABP1, GSPT1/eRF3a, GSPT2/eRF3b, and HBS1L/eRF3c were identified as CAPs only when CRBN was bound with Compound C
- Degradation of IKZF1/3 [4]: abolishes Compound C-induced degradation of IKZF1/3
- Degradation of GSPT1/2 [5]: abolishes Compound C-induced degradation of GSPT1/2
- Destruction of GSPT1/2 ([6]; 1 μM Compound C): induces destruction of IKZF1/3 and GSPT1/2
- Destruction of IKZF1/3 ([6]; 10 μM lenalidomide or 1 μM Compound C): induces destruction of IKZF1/3 and GSPT1/2
- Degradation of tested substrates (IKZF1/3, GSPT1/2) [7]: neither compound triggers degradation of any tested substrate
- GSPT1 expression level (GSPT1): GSPT1 is degraded in CRBN+/+ cells
- Anti-proliferative effect ([8]; AML3 (FIG. 12A)): exhibited anti-proliferative effect
- Anti-proliferative effect ([8]; AML3 expressing shGSPT1-1 or shGSPT1-3 vs parental or control shRNA, 0.0001 μM to 1 μM, two days): increased anti-proliferative effect
- RNA level of ATF4, ATF3, DDIT3, PPP1R15A, and GADD45A normalized with GAPDH (PERK pathway of UPR): induces expression of ATF4, ATF3, DDIT3, PPP1R15A, and GADD45A
- RNA level of ATF6 pathway components (XBP1) (XBP1 and ATF6 pathways): induces expression
- RNA level of XBP1 pathway components (SEC24D, DNAJB9, EDEM1, XBP1) (XBP1 and ATF6 pathways): induces expression
- Sensitivity to compound-induced ER stress and apoptosis (RPMI-8226): resistant to Compound C-induced ER stress and apoptosis
- Aiolos and CK1a protein levels [9]: also reduce
- GSPT1 protein level [9]: reduces
